According to US20040014694A1, “Use of docetaxel/doxorubicin/cyclophosphamide in adjuvant therapy” (priority 2002, published 2004):

Tests used:
[1] = In-house proprietary studies of docetaxel alone, overall response rate; type: in vivo; settings: first line therapy
Experimental: Docetaxel alone, in several in-house proprietary studies, gave overall response rates of 40 to 43% (in second line therapy at a dose of 100 mg/m^2), 48% (in first line therapy at a dose of 75 mg/m^2) and 61% (in first line therapy at a dose of 100 mg/m^2).

advanced breast cancer = advanced breast cancer after anthracycline failure; cited from earlier work
[2] = test system: metastatic breast cancer (MBC); settings: MBC progressing despite previous anthracycline containing chemotherapy; cited from earlier work

CC(=O)O[C@@]12CO[C@@H]1C[C@H](O)[C@@]1(C)C(=O)[C@H](O)C3=C(C)[C@@H](OC(=O)[C@H](O)[C@@H](NC(=O)OC(C)(C)C)c4ccccc4)C[C@@](O)([C@@H](OC(=O)c4ccccc4)[C@H]21)C3(C)C [Docetaxel, docetaxel]
overall response rate ([1]; dose 75 mg/m^2): 48% | overall response rate ([1]; dose 100 mg/m^2): 61% | response rate and TTP compared with MF (advanced breast cancer): superior to sequential methotrexate and 5-fluoruracil | response, median time to progression (TTP), and survival compared with MV [2]: significantly superior to MV
